Like-named read-outs stand apart in the source and are kept apart here.
How the values were obtained:
HBV = assay: Determination of HBV DNA from the supernatants of HepAD38 cells (anti-HBV activity); format: cell-based, hepatitis B virus; details: Hepatitis B virus, read-out: Cell Activity (EC50)
Method in brief: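 EC50 values were obtained by non-linear regression of HBV DNA copy numbers measured by qPCR against pCH-9/3091 plasmid standards. The DNA came from filtered supernatants collected on day 6. Before that, tetracycline-withdrawn HepAD38 cells had been exposed to serial half-log compound dilutions, with tetracycline-treated cells as the non-producing control.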

HBV core protein = HBV core protein (UniProt P03146); format: biochemical; details: read-out: Assembly Activity (IC50); BODIPY-FL labelled core protein, assembly started with NaCl, read after 6 min
Method in brief: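 Compounds tested at 8 concentrations in 0.5-log steps from 100, 31.6 or 10 μM against 1.0–2.0 μM BODIPY-FL-labelled Cys150 core dimers (residues 1–149), 50 mM HEPES pH 7.5. NaCl ([…] final) triggered assembly; quenching read at 6 min, 477/525 nm, with 2.5 M and 0 M NaCl as controls; EC50 by nonlinear fit.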

[1] = 144 h, HBV DNA in HepAD38 supernatant at day 6

HBV core protein, sequence (P03146 whole entry, looked up, the tested form may be a part): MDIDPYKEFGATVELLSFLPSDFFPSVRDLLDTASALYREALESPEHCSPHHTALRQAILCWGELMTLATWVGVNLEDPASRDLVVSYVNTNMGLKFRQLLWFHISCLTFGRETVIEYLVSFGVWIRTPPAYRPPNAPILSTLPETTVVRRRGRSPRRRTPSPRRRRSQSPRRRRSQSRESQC

SMILES	EC50 (HBV; [1]) [µM]	IC50 (HBV core protein) [µM]	EC50 (HBV; HePAD38, 144 h) [µM]
CC(F)(F)c1cccc2[nH]c(C(=O)N3CCc4nc(NCC5(O)CCC5)sc4C3)cc12 [Example 372, 1-[({5-[4-(1,1-difluoroethyl)-1H-indole-2-carbonyl]-4H,5H,6H,7H-[1,3]thiazolo[5,4-c]pyridin-2-yl}amino)methyl]cyclobutan-1-ol]	1 to 10	< 5	
CCc1cccc2[nH]c(C(=O)N3CCc4nc(NC(=O)C5CCOCC5)sc4C3)cc12 [Example 334, N-[5-(4-ethyl-1H-indole-2-carbonyl)-4H,5H,6H,7H-[1,3]thiazolo[5,4-c]pyridin-2-yl]oxane-4-carboxamide]	< 1	< 5	
O=C(c1cc2ccccc2[nH]1)N1CCc2nc(NCC3(O)CCOC3)sc2C1 (centres unmarked) [Example 253, 3-({[5-(1H-indole-2-carbonyl)-4H,5H,6H,7H-[1,3]thiazolo[5,4-c]pyridin-2-yl]amino}methyl)oxolan-3-ol]	< 1	< 5	
CCc1ccc(F)c2[nH]c(C(=O)N3CCc4nc(N)sc4C3)cc12 [Example 8, 5-(4-ethyl-7-fluoro-1H-indole-2-carbonyl)-4H,5H,6H,7H-[1,3]thiazolo[5,4-c]pyridin-2-amine]	< 1	< 5	
O=C1CC(C(=O)Nc2nc3c(s2)CN(C(=O)c2cc4ccccc4[nH]2)CC3)CCN1 (centres unmarked) [Example 412, N-[5-(1H-indole-2-carbonyl)-4H,5H,6H,7H-[1,3]thiazolo[5,4-c]pyridin-2-yl]-2-oxopiperidine-4-carboxamide]	< 1	< 5	
CC1CC1C(=O)Nc1nc2c(s1)CN(C(=O)c1cc3ccccc3[nH]1)CC2 (centres unmarked) [Example 268, N-[5-(1H-indole-2-carbonyl)-4H,5H,6H,7H-[1,3]thiazolo[5,4-c]pyridin-2-yl]-2-methylcyclopropane-1-carboxamide]	< 1	5 to 10	
O=C(c1cc2ccccc2[nH]1)N1CCc2nc(NCC3CCOC3)sc2C1 (centres unmarked) [Example 91, 5-(1H-indole-2-carbonyl)-N-[(oxolan-3-yl)methyl]-4H,5H,6H,7H-[1,3]thiazolo[5,4-c]pyridin-2-amine]		< 5	< 1
CC1Cc2nc(N)sc2CN1C(=O)c1cc2ccccc2[nH]1 (centres unmarked) [Example 107, 5-(1H-indole-2-carbonyl)-6-methyl-4H,5H,6H,7H-[1,3]thiazolo[5,4-c]pyridin-2-amine]	< 1	< 5	
O=C(c1cc2ccccc2[nH]1)N1CCc2nc(NCC3CCCO3)sc2C1 (centres unmarked) [Example 72, 5-(1H-indole-2-carbonyl)-N-[(oxolan-2-yl)methyl]-4H,5H,6H,7H-[1,3]thiazolo[5,4-c]pyridin-2-amine]	< 1	< 5	
CC(O)CNc1nc2c(s1)CN(C(=O)c1cc3ccccc3[nH]1)CC2 (centres unmarked) [Example 178, 1-{[5-(1H-indole-2-carbonyl)-4H,5H,6H,7H-[1,3]thiazolo[5,4-c]pyridin-2-yl]amino}propan-2-ol]	< 1	< 5	
O=C(c1cc2ccccc2[nH]1)N1CCc2nc(NCCCN3CCOCC3)sc2C1 [Example 73, 5-(1H-indole-2-carbonyl)-N-[3-(morpholin-4-yl)propyl]-4H,5H,6H,7H-[1,3]thiazolo[5,4-c]pyridin-2-amine]	< 1	< 5	
O=C(c1cc2c(Cl)cccc2[nH]1)N1CCc2nc(NCC3(CO)CC3)sc2C1 [Example 63, [1-({[5-(4-chloro-1H-indole-2-carbonyl)-4H,5H,6H,7H-[1,3]thiazolo[5,4-c]pyridin-2-yl]amino}methyl)cyclopropyl]methanol]	< 1	< 5	
Cc1c(Cl)ccc2cc(C(=O)N3CCc4nc(N)sc4C3)[nH]c12 [Example 134, 5-(6-chloro-7-methyl-1H-indole-2-carbonyl)-4H,5H,6H,7H-[1,3]thiazolo[5,4-c]pyridin-2-amine]	< 1	< 5	
O=C(c1cc2c(F)c(F)ccc2[nH]1)N1CCc2nc(NC3(CO)CCC3)sc2C1 [Example 222, (1-{[5-(4,5-difluoro-1H-indole-2-carbonyl)-4H,5H,6H,7H-[1,3]thiazolo[5,4-c]pyridin-2-yl]amino}cyclobutyl)methanol]	< 1	< 5	
O=C(c1cc2ccccc2[nH]1)N1CCc2nc(NCC(CO)CC3CC3)sc2C1 (centres unmarked) [Example 282, 2-(cyclopropylmethyl)-3-{[5-(1H-indole-2-carbonyl)-4H,5H,6H,7H-[1,3]thiazolo[5,4-c]pyridin-2-yl]amino}propan-1-ol]	< 1	5 to 10	
Nc1nc2c(s1)CN(C(=O)c1cc3c(F)cc(F)c(F)c3[nH]1)CC2 [Example 84, 5-(4,6,7-trifluoro-1H-indole-2-carbonyl)-4H,5H,6H,7H-[1,3]thiazolo[5,4-c]pyridin-2-amine]	< 1	< 5	

SMILES	EC50 (HBV; [1]) [µM]	IC50 (HBV core protein) [µM]	EC50 (HBV; HePAD38, 144 h) [µM]
O=C(c1cc2cc(F)c(Cl)cc2[nH]1)N1CCc2nc(NCC3CCOC3)sc2C1 (centres unmarked) [Example 239, 5-(6-chloro-5-fluoro-1H-indole-2-carbonyl)-N-[(oxolan-3-yl)methyl]-4H,5H,6H,7H-[1,3]thiazolo[5,4-c]pyridin-2-amine]	< 1	< 5	
CC(F)(F)c1cccc2[nH]c(C(=O)N3CCc4nc(NC(=O)C5CCOCC5)sc4C3)cc12 [Example 399, N-{5-[4-(1,1-difluoroethyl)-1H-indole-2-carbonyl]-4H,5H,6H,7H-[1,3]thiazolo[5,4-c]pyridin-2-yl}oxane-4-carboxamide]	1 to 10	< 5	
O=C(c1cc2ccccc2[nH]1)N1CCc2nc(N[C@H]3CC[C@@H](O)C3)sc2C1 [Example 396, (1R,3S)-3-{[5-(1H-indole-2-carbonyl)-4H,5H,6H,7H-[1,3]thiazolo[5,4-c]pyridin-2-yl]amino}cyclopentan-1-ol]	< 1	< 5	
O=C(c1cc2ccccc2[nH]1)N1CCc2nc(NC[C@H]3CCCC[C@@H]3O)sc2C1 [Example 288, (1S,2R)-2-({[5-(1H-indole-2-carbonyl)-4H,5H,6H,7H-[1,3]thiazolo[5,4-c]pyridin-2-yl]amino}methyl)cyclohexan-1-ol]	< 1	5 to 10	
NC(=O)CNc1nc2c(s1)CN(C(=O)c1cc3ccccc3[nH]1)CC2 [Example 278, 2-{[5-(1H-indole-2-carbonyl)-4H,5H,6H,7H-[1,3]thiazolo[5,4-c]pyridin-2-yl]amino}acetamide]	1 to 10	< 100	
Nc1nc2c(s1)CN(C(=O)c1cc3c(Cl)c(F)ccc3[nH]1)CC2 [Example 80, 5-(4-chloro-5-fluoro-1H-indole-2-carbonyl)-4H,5H,6H,7H-[1,3]thiazolo[5,4-c]pyridin-2-amine]	< 1	< 5	
CC1(Nc2nc3c(s2)CN(C(=O)c2cc4ccccc4[nH]2)CC3)CCOCC1 [Example 69, 5-(1H-indole-2-carbonyl)-N-(4-methyloxan-4-yl)-4H,5H,6H,7H-[1,3]thiazolo[5,4-c]pyridin-2-amine]	< 1	< 5	
O=C(Nc1nc2c(s1)CN(C(=O)c1cc3c(Cl)cccc3[nH]1)CC2)C1CCOCC1 [Example 316, N-[5-(4-chloro-1H-indole-2-carbonyl)-4H,5H,6H,7H-[1,3]thiazolo[5,4-c]pyridin-2-yl]oxane-4-carboxamide]	< 1	< 5	
O=C(c1cc2ccccc2[nH]1)N1CCc2nc(NCC3(CO)CCOCC3)sc2C1 [Example 237, [4-({[5-(1H-indole-2-carbonyl)-4H,5H,6H,7H-[1,3]thiazolo[5,4-c]pyridin-2-yl]amino}methyl)oxan-4-yl]methanol]	< 1	< 5	
O=C(c1cc2c(Cl)c(F)ccc2[nH]1)N1CCc2nc(NCC3(O)CCC3)sc2C1 [Example 362, 1-({[5-(4-chloro-5-fluoro-1H-indole-2-carbonyl)-4H,5H,6H,7H-[1,3]thiazolo[5,4-c]pyridin-2-yl]amino}methyl)cyclobutan-1-ol]	< 1	< 5	
N#Cc1ccc(F)c2[nH]c(C(=O)N3CCc4nc(N)sc4C3)cc12 [Example 79, 2-{2-amino-4H,5H,6H,7H-[1,3]thiazolo[5,4-c]pyridine-5-carbonyl}-7-fluoro-1H-indole-4-carbonitrile]	1 to 10	< 100	
O=C(c1cc2c(F)cc(F)cc2[nH]1)N1CCc2nc(NCC3CCOC3)sc2C1 (centres unmarked) [Example 119, 5-(4,6-difluoro-1H-indole-2-carbonyl)-N-[(oxolan-3-yl)methyl]-4H,5H,6H,7H-[1,3]thiazolo[5,4-c]pyridin-2-amine]	< 1	< 5	
O=C(c1cc2ccccc2[nH]1)N1CCc2nc(NCCn3cccn3)sc2C1 [Example 285, 5-(1H-indole-2-carbonyl)-N-[2-(1H-pyrazol-1-yl)ethyl]-4H,5H,6H,7H-[1,3]thiazolo[5,4-c]pyridin-2-amine]	< 1	< 5	
CCc1cccc2[nH]c(C(=O)N3CCc4nc(NCC5(CO)CC5)sc4C3)cc12 [Example 272, [1-({[5-(4-ethyl-1H-indole-2-carbonyl)-4H,5H,6H,7H-[1,3]thiazolo[5,4-c]pyridin-2-yl]amino}methyl)cyclopropyl]methanol]	< 1	< 5	
CC(=O)N1CCOCC1CNc1nc2c(s1)CN(C(=O)c1cc3ccccc3[nH]1)CC2 (centres unmarked) [Example 232, 1-[3-({[5-(1H-indole-2-carbonyl)-4H,5H,6H,7H-[1,3]thiazolo[5,4-c]pyridin-2-yl]amino}methyl)morpholin-4-yl]ethan-1-one]	< 1	5 to 10	

— patent publication US11267825B2 (AICURIS GMBH & CO. KG, priority 2017, dated 2022)
